These results are taken from patent publication US20230339863A1, “INDAZOLE DERIVATIVES AS CANNABINOID RECEPTOR PARTIAL AGONISTS” (RESEARCH TRIANGLE INSTITUTE, priority 2020, published 2023).

Assay [1] addresses T1, human CB2 (Homo sapiens (Human), UniProt P34972). Nature of the assay: In vitro binding affinity, [3H]CP-55,940 radioligand displacement, HEK cell membranes overexpressing human CB2. The following applies: [3H]CP-55,940 displacement, read-out: hCB2 Ki. On the procedure: (§1) In vitro binding affinity determination using radioligand displacement. Plasma membranes were isolated from HEK cells overexpressing either human CB1 or CB2. Binding was initiated with the addition of 40 μg of cell membrane proteins to assay tubes containing [3H]CP-55,940 (ca. 130 Ci/mmol), a test compound (for displacement studies), and a sufficient quantity of buffer (50 mM Tris-HCl, 1 mM EDTA, 3 mM MgCl2, 5 mg/mL BSA, pH 7.4) to bring the total incubation volume to 0.5 mL. Nonspecific binding was determined by the inclusion of 10 μM unlabeled CP-55,940. Following incubation at 30° C. for 1 h, binding was terminated by vacuum filtration through GF/C glass fiber filter plates. The filter plates were washed extensively and air-dried and sealed on the bottom. Liquid scintillate was added to the wells and the top sealed. After incubating the plates in cocktail for at least 2 h, the radioactivity present was determined by liquid scintillation spectrometry. Assays were done in duplicate, and results represent combined data from 3-6 experiments. Saturation and displacement data were analyzed by unweighted nonlinear regression of receptor binding data. For displacement studies, curve-fitting and IC50 calculation were done with GraphPad Prism (GraphPad Software, Inc., San Diego, CA).
(§2) Reference is made to the following reference, hereby incorporated by reference with regard to such assay, Zhang et al., Synthesis and biological evaluation of bivalent ligands for the cannabinoid 1 receptor, J Med Chem. 2010 Oct. 14; 53 (19):7048-60. doi: 10.1021/jm1006676.

Assay [2] addresses T2, human CB1 (Homo sapiens (Human), UniProt P21554). Briefly: In vitro cannabinoid receptor activity assay (calcium mobilization, FLIPR) in CHO cells expressing human CB1 and Gαq16. It counts as cell-based. To be noted: for EC50: CHO cells, hCB1, calcium fluorescence, read-out: hCB1 Ca EC50; for hCB1 Ca Span: percentage of the maximum CP55940 signal. On the procedure:
(§3) In vitro cannabinoid receptor activity assay. Chinese Hamster Ovary (CHO) cells stably expressing either human CB1 or CB2 cDNA and the promiscuous G-protein Gαq16 were transferred to each well of a black Costar 96-well optical bottom plate (Corning Corporation). Each plate was incubated at 37° C. for 24 hr to confluence. The culture media was removed from the plates and cells were subsequently loaded with a fluorescent calcium probe (Calcium 5 dye, Molecular Devices) at a final loading concentration of 2 μM in a HBSS-based buffer containing 20 mM HEPES, 1% BSA and 10 μM Probenecid (Sigma) in a total volume of 225 μl. Cells were incubated at 37° C. for 1 hr and then stimulated with various concentrations of a test agent using a FLIPR Tetra plate-reader, which automatically added the agonist at 10× concentration to each well after reading baseline values for ˜17 sec. Agonist-mediated change in fluorescence (488 nm excitation, 525 nm emission) was monitored in each well at 1 sec intervals for 60 sec and reported for each well. Data were analyzed using Prism software (GraphPad). Non-linear regression analysis was performed to fit data and obtain maximum response (Emax), effective concentration for 50% response (EC50), correlation coefficient (r2) and other parameters. All experiments were performed 3-6 times to ensure reproducibility.
(§4) Reference is made to the following reference, hereby incorporated by reference with regard to such assay, Seltzman, et al., Peripherally Selective Cannabinoid 1 Receptor (CB1R) Agonists for the Treatment of Neuropathic Pain, J Med Chem. 2016 Aug. 25; 59 (16):7525-43. doi: 10.1021/acs.jmedchem.6b00516. Epub 2016 Aug. 10.

In assay [3] the target is T2, human CB1. Nature of the assay: In vitro binding affinity, [3H]CP-55,940 radioligand displacement, HEK cell membranes overexpressing human CB1. To be noted: [3H]CP-55,940 displacement, read-out: hCB1 Ki. On the procedure: as §1, §2
Assay [4] has as its target T1, human CB2. Briefly: In vitro cannabinoid receptor activity assay (calcium mobilization, FLIPR) in CHO cells expressing human CB2 and Gαq16. Format: cell-based. The following applies: for EC50: CHO cells, hCB2, calcium fluorescence, read-out: hCB2 Ca EC50; for hCB2 Ca Span: percentage of the maximum CP55940 signal. On the procedure: as §3, §4

On to `C[C@H](NC(=O)c1nn(Cc2ccc(F)cc2)c2ccccc12)c1cccc(C(N)=O)c1` [Example 11, N-[(1S)-1-(3-Carbamoylphenyl)ethyl]-1-[(4-fluorophenyl)methyl]-1H-indazole-3-carboxamide], for which the Ki on human CB2 [1] was determined as 34 nM. Further, at human CB1 [2], the EC50 is 27 nM and the “hCB1 Ca Span” value is recorded as 86%. The Ki at human CB1 [3] was 7 nM. For the same compound, on human CB2 [4], the EC50 was 50 nM and the “hCB2 Ca Span” value was 48%.
Consider `CC(C)(NC(=O)c1nn(Cc2ccc(F)cc2)c2ccccc12)c1cccc(C(N)=O)c1` [Example 12, N-[2-(3-Carbamoylphenyl)propan-2-yl]-1-[(4-fluorophenyl)methyl]-1H-indazole-3-carboxamide], for which, at human CB2 [1], the Ki was 10 nM. In addition, on human CB1 [2], the EC50 worked out at 21 nM and the “hCB1 Ca Span” value was found to be 24%. The inhibition constant (Ki) at human CB1 [3] amounted to 4 nM. Moreover, on human CB2 [4], the EC50 turned out to be 27 nM and the “hCB2 Ca Span” value was 41%.
Consider `CC(C)(NC(=O)c1nn(Cc2ccc(F)cc2F)c2ccccc12)c1cccc(C(N)=O)c1` [Example 13, N-[2-(3-Carbamoylphenyl)propan-2-yl]-1-[(2,4-difluorophenyl)methyl]-1H-indazole-3-carboxamide], for which, at human CB2 [1], the Ki was found to be 27 nM. Moreover, at human CB1 [2], the EC50 was determined as 180 nM and the “hCB1 Ca Span” value is 32%. On human CB1 [3], the Ki was determined as 18 nM. Besides, at human CB2 [4], the EC50 was found to be 300 nM and the “hCB2 Ca Span” value is on record as 19%.
As for `CC(C)(NC(=O)c1nn(Cc2ccc(F)cc2)c2ccccc12)C1CCCN(CC(N)=O)C1` (stereo not drawn) [Example 30, N-{2-[1-(Carbamoylmethyl)piperidin-3-yl]propan-2-yl}-1-[(4-fluorophenyl)methyl]-1H-indazole-3-carboxamide], the Ki on human CB2 [1] is 21 nM; on human CB1 [3], 48 nM. The EC50 was determined as 330 nM on human CB1 [2] and 63 nM at human CB2 [4]. The “hCB1 Ca Span” value on human CB1 [2] is 40%. Besides, the “hCB2 Ca Span” value at human CB2 [4] was determined as 12%.
